According to ChEMBL document CHEMBL4145689, “Tailoring the Substitution Pattern on 1,3,5-Triazine for Targeting Cyclooxygenase-2: Discovery and Structure-Activity Relationship of Triazine-4-Aminophenylmorpholin-3-one Hybrids that Reverse Algesia and Inflammation in Swiss Albino Mice” (J Med Chem, 2018):
pIC50: −log10 of the molar value. Activity calls are given as the source filed them. No cut-off for these calls is given here.

Key:
[1] = biological target: T1, Prostaglandin G/H synthase 1 (Ovis aries, UniProt P05979); assay: Inhibition of ovine COX1 pre-incubated for 10 mins before arachidonic acid addition and measured after 2 mins by EIA method
T1 sequence (P05979 whole entry): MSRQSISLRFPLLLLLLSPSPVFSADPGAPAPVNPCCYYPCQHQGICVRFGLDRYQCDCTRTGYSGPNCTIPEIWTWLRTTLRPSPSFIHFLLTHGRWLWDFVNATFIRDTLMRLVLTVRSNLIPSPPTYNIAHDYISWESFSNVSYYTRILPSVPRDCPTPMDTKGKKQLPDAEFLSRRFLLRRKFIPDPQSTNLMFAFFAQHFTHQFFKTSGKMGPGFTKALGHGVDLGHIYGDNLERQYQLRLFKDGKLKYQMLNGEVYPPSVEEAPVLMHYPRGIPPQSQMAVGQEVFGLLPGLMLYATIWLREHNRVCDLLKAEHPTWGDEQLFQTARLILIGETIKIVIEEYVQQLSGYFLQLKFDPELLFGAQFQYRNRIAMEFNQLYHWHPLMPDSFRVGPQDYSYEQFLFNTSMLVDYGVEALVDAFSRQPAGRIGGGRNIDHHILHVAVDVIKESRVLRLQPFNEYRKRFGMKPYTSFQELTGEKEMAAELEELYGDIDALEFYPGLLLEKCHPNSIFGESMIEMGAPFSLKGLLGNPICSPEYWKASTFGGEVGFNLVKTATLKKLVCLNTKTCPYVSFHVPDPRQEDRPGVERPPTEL

Mus musculus [2] = assay: Analgesic activity in […] pre-treated Swiss albino mouse assessed as inhibition of acetic acid-induced writhings at 5 mg/kg, ip measured 30 mins post acetic acid challenge; format: functional, organism-based
Mus musculus [3] = assay: Acute toxicity in Swiss albino mouse assessed as induction of hepatic lesions at 50 to 2000 mg/kg, po measured over 14 days post dose by H and E staining based microscopy; format: organism-based; settings: in vivo, 336 h
[4] = biological target: T2, Prostaglandin G/H synthase 2 (Homo sapiens) (UniProt P35354); settings: 10 uM
T2 sequence (whole entry): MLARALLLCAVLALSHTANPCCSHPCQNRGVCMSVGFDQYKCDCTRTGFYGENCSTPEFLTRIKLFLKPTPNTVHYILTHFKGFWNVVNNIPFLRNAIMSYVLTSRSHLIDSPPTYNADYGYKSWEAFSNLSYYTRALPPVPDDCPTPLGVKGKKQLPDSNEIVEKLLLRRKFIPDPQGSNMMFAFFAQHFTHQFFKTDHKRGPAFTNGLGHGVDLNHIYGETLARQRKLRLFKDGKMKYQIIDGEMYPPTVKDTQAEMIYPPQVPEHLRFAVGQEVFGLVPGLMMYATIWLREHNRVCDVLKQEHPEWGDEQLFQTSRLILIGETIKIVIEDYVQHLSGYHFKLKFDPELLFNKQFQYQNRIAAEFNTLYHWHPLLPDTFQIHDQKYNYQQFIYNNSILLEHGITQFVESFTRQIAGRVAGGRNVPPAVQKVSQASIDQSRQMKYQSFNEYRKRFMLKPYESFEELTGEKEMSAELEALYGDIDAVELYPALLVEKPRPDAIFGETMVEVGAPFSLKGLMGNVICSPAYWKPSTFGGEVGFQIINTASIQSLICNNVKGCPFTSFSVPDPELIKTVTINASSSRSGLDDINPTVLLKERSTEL

Mus musculus [5] = assay: Acute toxicity in Swiss albino mouse assessed as induction of renal lesions at 50 to 2000 mg/kg, po measured over 14 days post dose by H and E staining based microscopy; format: organism-based; settings: in vivo, 336 h
[6] = biological target: T2, Prostaglandin G/H synthase 2 (Homo sapiens)
Description: Binding affinity to human COX2 assessed as binding constant by ITC

[7] = biological target: T3, Polyunsaturated fatty acid 5-lipoxygenase (Homo sapiens, UniProt P09917); assay: Inhibition of 5-LOX (unknown origin)
T3 sequence (P09917 whole entry): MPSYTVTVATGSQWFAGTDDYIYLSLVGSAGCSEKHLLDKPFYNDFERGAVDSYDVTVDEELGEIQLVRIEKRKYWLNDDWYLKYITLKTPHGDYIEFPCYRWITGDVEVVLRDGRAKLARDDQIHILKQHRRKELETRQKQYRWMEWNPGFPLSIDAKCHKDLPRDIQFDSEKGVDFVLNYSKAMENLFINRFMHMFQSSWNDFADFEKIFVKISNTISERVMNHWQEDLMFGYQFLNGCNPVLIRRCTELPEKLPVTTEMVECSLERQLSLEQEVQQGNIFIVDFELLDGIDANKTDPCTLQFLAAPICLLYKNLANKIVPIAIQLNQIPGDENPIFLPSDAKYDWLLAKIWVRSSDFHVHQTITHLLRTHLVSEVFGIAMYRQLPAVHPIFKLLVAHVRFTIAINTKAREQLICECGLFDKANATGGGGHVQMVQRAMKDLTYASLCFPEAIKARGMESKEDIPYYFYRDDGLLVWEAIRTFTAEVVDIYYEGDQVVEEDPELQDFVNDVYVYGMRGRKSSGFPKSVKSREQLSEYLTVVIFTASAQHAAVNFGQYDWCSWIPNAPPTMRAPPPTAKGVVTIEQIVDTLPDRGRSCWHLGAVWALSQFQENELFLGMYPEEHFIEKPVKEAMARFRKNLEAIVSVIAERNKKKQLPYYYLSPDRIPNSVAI

Mus musculus [8] = assay: Acute toxicity in Swiss albino mouse assessed as induction of myocardial lesions at 50 to 2000 mg/kg, po measured over 14 days post dose by H and E staining based microscopy; format: organism-based; settings: in vivo, 336 h
Mus musculus [9] = assay: Anti-inflammatory activity in Swiss albino mouse model of carrageenan-induced-paw edema assessed as inhibition of paw edema at 5 mg/kg, ip after 3 hrs; format: functional
Mus musculus [10] = assay: Analgesic activity in Swiss albino mouse assessed as inhibition of acetic acid-induced writhings at 10 mg/kg, ip measured 30 mins post acetic acid challenge; format: functional; settings: 0.5 h
Mus musculus [11] = assay: Acute toxicity in Swiss albino mouse assessed as induction of mortality at 50 to 2000 mg/kg, po measured over 14 days post dose; format: organism-based; settings: in vivo, 336 h
Mus musculus [12] = assay: Acute toxicity in Swiss albino mouse assessed as induction of behavioural impairment at 50 to 2000 mg/kg, po measured over 14 days post dose; format: organism-based; settings: in vivo, 336 h
Mus musculus [13] = assay: Acute toxicity in Swiss albino mouse assessed as induction of congestion in renal tissue at 50 to 2000 mg/kg, po measured over 14 days post dose by H and E staining based microscopy; format: organism-based; settings: in vivo, 336 h
[14] = biological target: Prostaglandin G/H synthase 1 (Homo sapiens, UniProt P23219); assay: Inhibition of COX1 in human whole blood assessed as A23187-stimulated TxB2 production at 1 uM pre-incubated for 60 mins before A23187 addition and measured after 30 mins by ELISA (reference value: 2 ng/ml); settings: 0.5 h
Prostaglandin G/H synthase 1 (Homo sapiens, UniProt P23219), sequence (P23219 whole entry): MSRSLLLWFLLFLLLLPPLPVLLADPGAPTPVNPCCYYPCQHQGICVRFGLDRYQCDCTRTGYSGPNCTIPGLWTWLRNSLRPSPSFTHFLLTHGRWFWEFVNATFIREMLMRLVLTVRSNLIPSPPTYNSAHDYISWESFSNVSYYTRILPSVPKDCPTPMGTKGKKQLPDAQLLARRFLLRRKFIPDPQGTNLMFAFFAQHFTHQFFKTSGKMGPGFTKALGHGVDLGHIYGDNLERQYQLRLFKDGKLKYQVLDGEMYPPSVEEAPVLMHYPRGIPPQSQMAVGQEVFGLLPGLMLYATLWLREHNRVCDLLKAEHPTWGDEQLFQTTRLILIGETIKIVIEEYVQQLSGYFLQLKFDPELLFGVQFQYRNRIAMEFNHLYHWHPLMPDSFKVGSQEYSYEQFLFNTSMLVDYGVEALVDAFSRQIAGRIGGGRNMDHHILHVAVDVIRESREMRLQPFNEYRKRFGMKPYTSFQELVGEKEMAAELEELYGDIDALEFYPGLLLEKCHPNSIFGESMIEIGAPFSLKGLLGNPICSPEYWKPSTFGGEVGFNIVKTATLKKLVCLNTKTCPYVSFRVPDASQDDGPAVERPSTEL

Mus musculus [15] = assay: Acute toxicity in Swiss albino mouse assessed as induction of mesangium shrinkage at 50 to 2000 mg/kg, po measured over 14 days post dose by H and E staining based microscopy; format: organism-based; settings: in vivo, 336 h
Mus musculus [16] = assay: Analgesic activity in ip dosed Swiss albino mouse assessed as inhibition of acetic acid-induced writhings measured 30 mins post acetic acid challenge; format: functional; settings: 0.5 h
Mus musculus [17] = assay: Analgesic activity in Swiss albino mouse assessed as inhibition of acetic acid-induced writhings at 5 mg/kg, ip measured 30 mins post acetic acid challenge; format: functional; settings: 0.5 h
Mus musculus [18] = assay: Acute toxicity in Swiss albino mouse assessed as induction of increase in capsular space at 50 to 2000 mg/kg, po measured over 14 days post dose by H and E staining based microscopy; format: organism-based; settings: in vivo, 336 h
Mus musculus [19] = assay: Analgesic activity in substance P pre-treated Swiss albino mouse assessed as inhibition of acetic acid-induced writhings at 5 mg/kg, ip measured 30 mins post acetic acid challenge; format: functional, organism-based
Mus musculus [20] = assay: Anti-inflammatory activity in Swiss albino mouse model of carrageenan-induced-paw edema assessed as inhibition of paw edema at 10 mg/kg, ip after 3 hrs; format: functional

SMILES | pIC50 [1] | inhibition in vivo at 10 mg/kg (Mus musculus [10]) [%] | inhibition in vivo at 5 mg/kg (Mus musculus [17]) [%] | also measured
O=C1COCCN1c1ccc(Nc2nc(Cl)nc(N3CCOCC3)n2)cc1 | < 5.00 |  |  | 
O=C1COCCN1c1ccc(Nc2nc(Cl)nc(NCc3ccccc3)n2)cc1 | < 5.00 |  |  | 
O=C1COCCN1c1ccc(Nc2nc(Cl)nc(OCCCl)n2)cc1 | < 5.00 |  |  | 
[N-]=[N+]=NCCOc1nc(Cl)nc(Nc2ccc(N3CCOCC3=O)cc2)n1 | < 5.00 |  |  | 
O=C1COCCN1c1ccc(Nc2nc(Nc3ccc(Cl)cc3)nc(N3CCOCC3)n2)cc1 | 5.30 |  |  | 
O=C1COCCN1c1ccc(Nc2nc(Cl)nc(Cl)n2)cc1 | < 5.00 |  |  | 
O=C1COCCN1c1ccc(Nc2nc(Cl)nc(N3CCCC3)n2)cc1 | 5.00 | 93 | 87 | inhibition (Mus musculus [2]): Active; Activity (Mus musculus [3]): Non-Toxic; Ka [4]: 2.54 ×10⁵ /M; Activity (Mus musculus [5]): Non-Toxic; Ka [6]: 5.37 ×10⁵ /M; pIC50 [7]: < 5.00; Activity (Mus musculus [8]): Non-Toxic; inhibition in vivo at 5 mg/kg (Mus musculus [9]): 38%; Activity (Mus musculus [11]): Non-Toxic; Activity (Mus musculus [12]): Non-Toxic; Activity (Mus musculus [13]): Toxic; Activity [14]: 1.9 ng/mL; Activity (Mus musculus [15]): Toxic; ED50 (Mus musculus [16]): 2.2 mg/kg; Activity (Mus musculus [18]): Toxic; Activity (Mus musculus [19]): inactive
O=C1COCCN1c1ccc(Nc2nc(Cl)nc(Nc3ccc(Br)cc3)n2)cc1 | 4.30 |  |  | 
COc1ccc2c(c1)c(CC(=O)O)c(C)n2C(=O)c1ccc(Cl)cc1 [INDOMETHACIN] |  | 63 |  | inhibition in vivo at 10 mg/kg (Mus musculus [20]): 30%
O=C(NCCOc1nc(Cl)nc(Nc2ccc(N3CCOCC3=O)cc2)n1)C1CCCN1C(=O)OCc1ccccc1 (configuration not stated) | < 5.00 |  |  | 
O=C1COCCN1c1ccc(Nc2nc(Cl)nc(N3CCN(c4ccccc4)CC3)n2)cc1 | < 5.00 |  |  | 
O=C(NCCOc1nc(Cl)nc(Nc2ccc(N3CCOCC3=O)cc2)n1)c1ccc(Cl)s1 | < 5.00 |  |  | 
O=C1COCCN1c1ccc(Nc2nc(Cl)nc(Nc3ccc(Cl)cc3)n2)cc1 | < 5.00 | 90.2 | 79 | inhibition in vivo at 5 mg/kg (Mus musculus [9]): 28%; Activity [14]: 1.85 ng/mL; ED50 (Mus musculus [16]): 1.9 mg/kg
O=C1COCCN1c1ccc(Nc2nc(Cl)nc(Nc3ccc(O)cc3)n2)cc1 | 5.00 | 68 | 56 | Activity [14]: 1.64 ng/mL
O=C(NCCOc1nc(Cl)nc(Nc2ccc(N3CCOCC3=O)cc2)n1)c1ccccc1F | < 5.00 |  |  | 
Cc1ccc(S(=O)(=O)NCCOc2nc(Cl)nc(Nc3ccc(N4CCOCC4=O)cc3)n2)cc1 | < 5.00 |  |  | 
NCCOc1nc(Cl)nc(Nc2ccc(N3CCOCC3=O)cc2)n1 | < 5.00 |  |  | 
Cc1ccc(Nc2nc(Cl)nc(Nc3ccc(N4CCOCC4=O)cc3)n2)cc1 | < 5.00 |  |  | 
O=C1COCCN1c1ccc(Nc2nc(Cl)nc(NC3CCCCC3)n2)cc1 | < 5.00 | 81 | 56 | 
COc1ccc(Nc2nc(Cl)nc(Nc3ccc(N4CCOCC4=O)cc3)n2)cc1 | < 5.00 | 79 | 47 | 
COC(=O)C(N)Cc1ccc(Oc2nc(Cl)nc(Nc3ccc(N4CCOCC4=O)cc3)n2)cc1 (configuration not stated) | < 5.00 |  |  | 
Cc1ccc(-c2cc(C(F)(F)F)nn2-c2ccc(S(N)(=O)=O)cc2)cc1 [CELECOXIB] |  |  | 62 | inhibition in vivo at 5 mg/kg (Mus musculus [9]): 33%
Nc1nc(Cl)nc(Nc2ccc(N3CCOCC3=O)cc2)n1 | < 5.00 | 74 | 67 | Activity [14]: 1.68 ng/mL
O=C1COCCN1c1ccc(Nc2nc(Cl)nc(Nc3ccccc3)n2)cc1 | < 5.00 | 83 | 76 | Activity [14]: 1.7 ng/mL
